This passage reports GI50 and TGI results from PubChem BioAssay (NCI).

Test systems include M14 melanoma; SW-620 colon; NCI-H522 lung; SK-MEL-28 melanoma; NCI-H226 lung; OVCAR-3 ovarian; UACC-257 melanoma; COLO 205 colon; MOLT-4 leukemia; CAKI-1 renal.
Common to all, as to assay: growth of human tumour cells (NCI), 48 h

Structures are written as SMILES.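 Briefly, cells in 96-well plates were exposed to five compound concentrations for 48 h, and endpoints were estimated by linear interpolation. At the GI50, growth is halved. The concentration for full growth arrest is given as TGI.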

On to `CCCCn1c2cc(OCc3cn(-c4ccc(Cl)cc4)nn3)ccc2c2ccnc(C)c21`, for which the GI50 in the test on M14 melanoma was 5.82 µM; in the test with SW-620 colon, 11 µM; with NCI-H522 lung it was 4.72 µM; in the test with SK-MEL-28 melanoma, 5.82 µM; with NCI-H226 lung it was 5.51 µM; with OVCAR-3 ovarian, 6.41 µM. In addition, the GI50 in the test with UACC-257 melanoma is 5.83 µM; in the test on COLO 205 colon, 5.76 µM; with MOLT-4 leukemia, 6.07 µM. The TGI in the test on M14 melanoma was 16.4 µM; with SW-620 colon it was over 33.3 µM; in the test with NCI-H522 lung, 13.3 µM; with SK-MEL-28 melanoma, 14 µM; in the test on NCI-H226 lung, 14.1 µM; in the test on OVCAR-3 ovarian it was 18.2 µM. Besides, the TGI with UACC-257 melanoma stood at 11.1 µM; in the test on COLO 205 colon, 14.4 µM; with MOLT-4 leukemia it was 23.9 µM.

For the compound `N#CC(=S)Nc1cccc(Cl)c1`, the TGI was over 100 µM with M14 melanoma; over 100 µM in the test with SW-620 colon; over 100 µM in the test with CAKI-1 renal; over 100 µM in the test on SK-MEL-28 melanoma; over 100 µM in the test on NCI-H226 lung; 56.4 µM in the test on OVCAR-3 ovarian. The TGI in the test with UACC-257 melanoma, with COLO 205 colon and with MOLT-4 leukemia was over 100 µM each time.

In the case of `C=C1C(=O)O[C@H]2[C@H]1CC/C(COC(=O)NCc1cc3ccccc3[nH]1)=C\CC[C@@]1(C)O[C@@H]21`, the GI50 in the test with M14 melanoma was 1.74 µM; with SW-620 colon it was 1.72 µM; with NCI-H522 lung it was 1.5 µM; in the test with SK-MEL-28 melanoma, 1.74 µM; in the test with NCI-H226 lung, 1.6 µM; in the test with OVCAR-3 ovarian, 1.69 µM. Moreover, the results for the GI50 in the test on UACC-257 melanoma, in the test with COLO 205 colon and with MOLT-4 leukemia were 2.11 µM, 1.8 µM and 2.43 µM, respectively. The TGI worked out at 3.85 µM in the test with M14 melanoma; 3.84 µM in the test with SW-620 colon; 3.29 µM in the test on NCI-H522 lung; 3.36 µM in the test with SK-MEL-28 melanoma; 3.15 µM with NCI-H226 lung; 3.52 µM with OVCAR-3 ovarian. Further, the results for the TGI in the test on UACC-257 melanoma, in the test with COLO 205 colon and with MOLT-4 leukemia were 4.61 µM, 3.59 µM and 7.64 µM, respectively.

For `CCOP(=O)(OCC)C(NC(c1ccccc1)c1ccccc1)c1ccccc1` (configuration not stated), the GI50 in the test with M14 melanoma was 15.3 µM; with SW-620 colon, 15 µM; with CAKI-1 renal, 10.4 µM; in the test on NCI-H522 lung, 17.1 µM; with SK-MEL-28 melanoma it was 41.1 µM; with OVCAR-3 ovarian it was 3.66 µM. The GI50 in the test with MOLT-4 leukemia was 0.0995 µM. In addition, the TGI is 28.6 µM with M14 melanoma; 31.7 µM with SW-620 colon; 22.2 µM in the test on CAKI-1 renal; 48 µM in the test with NCI-H522 lung; over 100 µM with SK-MEL-28 melanoma; 18.9 µM in the test with OVCAR-3 ovarian. Further, the TGI in the test with MOLT-4 leukemia is 3.47 µM.

For the compound `CCCCCCCCCCC/C(=N/O)c1ccc(O)c2ncccc12`, the TGI in the test with M14 melanoma is 4.8 µM; in the test on SW-620 colon, over 100 µM; in the test with CAKI-1 renal it was 51.6 µM; with NCI-H522 lung, 6.57 µM; in the test with SK-MEL-28 melanoma, over 100 µM; in the test with NCI-H226 lung it was 11.9 µM. Further, the TGI was 24.2 µM with UACC-257 melanoma and over 100 µM in the test with COLO 205 colon.

In the case of `N#CC(C(=O)/C(=N/N)C(C#N)c1ccc(Cl)cc1)c1ccc(Cl)cc1` (configuration not stated), the TGI in the test on M14 melanoma, in the test with SW-620 colon, in the test on NCI-H522 lung, in the test on NCI-H226 lung, in the test with OVCAR-3 ovarian and in the test on UACC-257 melanoma was over 100 µM in each case. Moreover, the TGI in the test with COLO 205 colon and in the test on MOLT-4 leukemia was over 100 µM throughout.

Turning to `Cc1ccccc1-c1c(N)nc(NC#N)nc1C(=O)Nc1ccccc1`, the TGI with M14 melanoma, with SW-620 colon, in the test on CAKI-1 renal, with SK-MEL-28 melanoma, with NCI-H226 lung and in the test with OVCAR-3 ovarian was over 100 µM each time. The TGI in the test on UACC-257 melanoma, with COLO 205 colon and with MOLT-4 leukemia was over 100 µM throughout.

Consider `CCOc1ccc(N=Cc2cccc3cccnc23)cc1`, for which the TGI with M14 melanoma, in the test with SW-620 colon, with CAKI-1 renal, in the test on SK-MEL-28 melanoma, in the test with NCI-H226 lung and in the test with OVCAR-3 ovarian was over 100 µM each time. Further, the TGI in the test on UACC-257 melanoma, with COLO 205 colon and in the test on MOLT-4 leukemia was over 100 µM in each case.

On to `CC(O)/C=C/C(CCC(C)CO)C(C)C` (configuration not stated), for which the TGI in the test with M14 melanoma, in the test with SW-620 colon, with CAKI-1 renal, in the test with NCI-H522 lung, in the test on SK-MEL-28 melanoma and in the test with OVCAR-3 ovarian was over 100 µM in each case. Moreover, the TGI in the test with UACC-257 melanoma, in the test on COLO 205 colon and in the test with MOLT-4 leukemia was over 100 µM in each case.

In the case of `CSc1nc(NC2OCC(OC(C)=O)C(OC(C)=O)C2OC(C)=O)c2c(OC(C)=O)c(C)c(=O)oc2n1` (configuration not stated), the TGI with M14 melanoma, in the test with SW-620 colon, in the test on CAKI-1 renal, in the test on NCI-H226 lung, with OVCAR-3 ovarian and in the test with UACC-257 melanoma was over 100 µM in each case. Further, the TGI with COLO 205 colon and with MOLT-4 leukemia was over 100 µM each time.

With `Cc1c(/C=N/NS(=O)(=O)c2ccccc2)no[n+]1[O-]`, the TGI in the test on M14 melanoma, with SW-620 colon, in the test on CAKI-1 renal, in the test on NCI-H522 lung, in the test with SK-MEL-28 melanoma and in the test on OVCAR-3 ovarian was over 100 µM throughout. The TGI in the test with COLO 205 colon and in the test on MOLT-4 leukemia was over 100 µM throughout.

As to `COc1cc2oc(=O)ccc2cc1C1OC(=O)C2OC21C` (configuration not stated), the TGI in the test on M14 melanoma, with SW-620 colon, in the test on CAKI-1 renal, in the test on SK-MEL-28 melanoma, in the test with NCI-H226 lung and in the test on OVCAR-3 ovarian was over 100 µM throughout. Further, the TGI in the test on UACC-257 melanoma, with COLO 205 colon and with MOLT-4 leukemia was over 100 µM throughout.
